Assay results: patent US10314806B2 (SICHUAN JIUZHANG BIOLOGICAL SCIENCE AND TECHNOLOGY CO., LTD., priority 2014, dated 2019)

Columns and labels:
[1] = tested on: chemical liver injury (rat alcoholic fatty liver model); test: Protective effect on chemical liver injury (rat alcoholic fatty liver model); type: in vivo, rats; conditions: 30 days; for GSH / SOD: liver homogenate; for ALT / AST: serum
Procedure: Experimental grouping and dose design: Female SD rats were randomly divided to groups, 10 rats for each group, […], 70 mg·kg^−1, 85 mg·kg^−1, 100 mg·kg^−1, 120 mg·kg^−1, 140 mg·kg^−1, 160 mg·kg^−1, 180 mg·kg^−1, […], together with a negative control group and 50% ethanol model control group. Liver injury model was induced by ethanol (analytical pure).
Determination of ALT, AST, TG in serum of rats; Determination of SOD, MDA, reduced glutathione (GSH) in liver homogenate.
Statistics of experimental data: Statistical analysis of experimental data was performed using software package of SPSS 19.0 for windows.

H22 liver cancer = test: Inhibition of KM mice-transplanted tumor of H22 liver cancer; type: in vivo
Procedure: (1) Animal Kunming mice, half male and half female, body weight 16˜27 g.
Cell Lines H22 cell lines were mice liver cancer cells, and were subjected to suspension growth in RPMI-1640 media containing 10% calf serum, 100 U·ml^−1 penicillin, 100 μg·ml^−1 streptomycin, and cultured in an incubator at 37° C. under 5% CO2, followed by changing the medium and subculturing every two or three days.
Cell Culture H22 cells in exponential phase of growth were collected, centrifugated at 1000 rpm for 5 min, and washed twice. Viable cells were counted by trypan blue staining. The cells were quickly inoculated in abdominal cavity of KM mice, and after 7˜10 days, ascites were drawn and subcutaneously inoculated at the left forelimb armpit of mice at 0.2 ml/animal (containing about 2×10^7 cells). When tumor grew to 1 cm×1 cm×1 cm, mice were used in experiment. Mice tumors were aseptically stripped, and washed with Hank's solution thrice, to remove blood, fat and necrotic tissues. Tumors were cut to broken pieces of 1 mm×1 mm×1 mm, and washed with Hank's solution twice, to which physiological saline was added at a ratio of (1 g:3 ml), and then ground in a glass homogenizer and filtered by 80-100 mesh sieve to make a suspension of single cell. Viable cells were counted by trypan blue staining.
On the second day after inoculation, a dosage of 0.2 ml·10 g^−1 was administrated by intravenous injection (iv), once a day. When the average tumor weight in negative group was more than 1.0 g (tumor volume being about 0.5 cm^3), the experiment was stopped, and mice were sacrificed by cervical vertebrae removal and weighed. Tumors were stripped to calculate inhibitory rate.

Question: With `O=C(/C=C/c1ccc(O)c(O)c1)O[C@@H]1C[C@](O)(C(=O)O)C[C@@H](O)[C@H]1O` [Commercially available chlorogenic acid, chlorogenic acid, reference compound] as the compound, how does the GSH ([1]; 10 mg·kg^−1 intragastric) read?
Answer: Its GSH is 12.57 ± 3.84 mg/g.

Question: What about the SOD ([1]; 10 mg·kg^−1 intragastric) of the same compound?
Answer: Its SOD is 26.15 ± 2.45 nmol/mg.

Question: And the ALT ([1]; 10 mg·kg^−1 intragastric)?
Answer: The ALT was 58.67 ± 2.89 U/L.

Question: And the AST ([1]; 10 mg·kg^−1 intragastric)?
Answer: The AST was 194.12 ± 6.32 U/L.

Question: What about the GSH ([1]; 20 mg·kg^−1 intragastric) of the same compound?
Answer: The GSH was 13.62 ± 4.87 mg/g.

Question: And the SOD ([1]; 20 mg·kg^−1 intragastric)?
Answer: The SOD was 27.24 ± 2.78 nmol/mg.

Question: What about the ALT ([1]; 20 mg·kg^−1 intragastric) of the same compound?
Answer: Its ALT is 57.41 ± 3.15 U/L.

Question: What about the AST ([1]; 20 mg·kg^−1 intragastric) of the same compound?
Answer: The AST was 193.89 ± 3.84 U/L.

Question: What about the GSH ([1]; 35 mg·kg^−1 intragastric) of the same compound?
Answer: Its GSH is 14.83 ± 5.47 mg/g.

Question: What about the SOD ([1]; 35 mg·kg^−1 intragastric) of the same compound?
Answer: Its SOD is 28.05 ± 1.45 nmol/mg.

Question: What about the ALT ([1]; 35 mg·kg^−1 intragastric) of the same compound?
Answer: The ALT was 56.84 ± 2.87 U/L.

Question: And the AST ([1]; 35 mg·kg^−1 intragastric)?
Answer: The AST was 192.12 ± 5.12 U/L.

Question: What about the GSH ([1]; 50 mg·kg^−1 intragastric) of the same compound?
Answer: The GSH was 15.57 ± 3.16 mg/g.

Question: What about the SOD ([1]; 50 mg·kg^−1 intragastric) of the same compound?
Answer: The SOD was 29.14 ± 3.78 nmol/mg.

Question: And the ALT ([1]; 50 mg·kg^−1 intragastric)?
Answer: Its ALT is 56.88 ± 2.64 U/L.

Question: And the AST ([1]; 50 mg·kg^−1 intragastric)?
Answer: The AST was 190.56 ± 4.28 U/L.

Question: What about the GSH ([1]; 70 mg·kg^−1 intragastric) of the same compound?
Answer: The GSH was 16.88 ± 2.78 mg/g.

Question: What about the SOD ([1]; 70 mg·kg^−1 intragastric) of the same compound?
Answer: Its SOD is 30.55 ± 2.05 nmol/mg.

Question: What about the ALT ([1]; 70 mg·kg^−1 intragastric) of the same compound?
Answer: Its ALT is 55.14 ± 1.65 U/L.

Question: What about the AST ([1]; 70 mg·kg^−1 intragastric) of the same compound?
Answer: The AST was 190.88 ± 3.65 U/L.

Question: What about the GSH ([1]; 85 mg·kg^−1 intragastric) of the same compound?
Answer: Its GSH is 17.37 ± 3.87 mg/g.

Question: What about the SOD ([1]; 85 mg·kg^−1 intragastric) of the same compound?
Answer: The SOD was 31.04 ± 2.58 nmol/mg.

Question: And the ALT ([1]; 85 mg·kg^−1 intragastric)?
Answer: The ALT was 53.24 ± 6.11 U/L.

Question: What about the AST ([1]; 85 mg·kg^−1 intragastric) of the same compound?
Answer: Its AST is 198.87 ± 2.78 U/L.

Question: What about the GSH ([1]; 100 mg·kg^−1 intragastric) of the same compound?
Answer: Its GSH is 18.00 ± 3.21 mg/g.

Question: What about the SOD ([1]; 100 mg·kg^−1 intragastric) of the same compound?
Answer: Its SOD is 32.54 ± 3.47 nmol/mg.

Question: And the AST ([1]; 100 mg·kg^−1 intragastric)?
Answer: Its AST is 187.12 ± 4.57 U/L.

Question: And the GSH ([1]; 120 mg·kg^−1 intragastric)?
Answer: The GSH was 18.24 ± 6.48 mg/g.

Question: And the SOD ([1]; 120 mg·kg^−1 intragastric)?
Answer: The SOD was 33.65 ± 5.01 nmol/mg.

Question: What about the AST ([1]; 120 mg·kg^−1 intragastric) of the same compound?
Answer: The AST was 184.25 ± 3.49 U/L.

Question: And the GSH ([1]; 140 mg·kg^−1 intragastric)?
Answer: The GSH was 18.65 ± 3.48 mg/g.

Question: And the SOD ([1]; 140 mg·kg^−1 intragastric)?
Answer: Its SOD is 33.29 ± 2.68 nmol/mg.

Question: What about the AST ([1]; 140 mg·kg^−1 intragastric) of the same compound?
Answer: Its AST is 182.36 ± 3.87 U/L.

Question: And the GSH ([1]; 160 mg·kg^−1 intragastric)?
Answer: The GSH was 17.55 ± 4.87 mg/g.

Question: What about the SOD ([1]; 160 mg·kg^−1 intragastric) of the same compound?
Answer: Its SOD is 33.12 ± 1.75 nmol/mg.

Question: What about the AST ([1]; 160 mg·kg^−1 intragastric) of the same compound?
Answer: Its AST is 180.15 ± 6.48 U/L.

Question: What about the GSH ([1]; 180 mg·kg^−1 intragastric) of the same compound?
Answer: The GSH was 17.98 ± 5.94 mg/g.

Question: What about the SOD ([1]; 180 mg·kg^−1 intragastric) of the same compound?
Answer: The SOD was 32.87 ± 2.16 nmol/mg.

Question: What about the AST ([1]; 180 mg·kg^−1 intragastric) of the same compound?
Answer: The AST was 179.54 ± 4.16 U/L.

Question: What about the GSH ([1]; 200 mg·kg^−1 intragastric) of the same compound?
Answer: The GSH was 16.49 ± 4.21 mg/g.

Question: And the SOD ([1]; 200 mg·kg^−1 intragastric)?
Answer: Its SOD is 31.11 ± 2.54 nmol/mg.

Question: What about the AST ([1]; 200 mg·kg^−1 intragastric) of the same compound?
Answer: The AST was 185.48 ± 3.94 U/L.

Question: And the GSH ([1]; 220 mg·kg^−1 intragastric)?
Answer: Its GSH is 15.31 ± 3.46 mg/g.

Question: What about the SOD ([1]; 220 mg·kg^−1 intragastric) of the same compound?
Answer: Its SOD is 28.15 ± 2.04 nmol/mg.

Question: And the AST ([1]; 220 mg·kg^−1 intragastric)?
Answer: Its AST is 188.34 ± 5.87 U/L.

Question: What about the Inhibitory rate (H22 liver cancer; 1 mg·kg^−1 iv once a day) of the same compound?
Answer: The Inhibitory rate was 5.1%.

Question: And the Tumor weight (H22 liver cancer; 1 mg·kg^−1 iv once a day)?
Answer: The Tumor weight was 2.228 ± 0.538 g.

Question: What about the Inhibitory rate (H22 liver cancer; 5 mg·kg^−1 iv once a day) of the same compound?
Answer: The Inhibitory rate was 17.4%.

Question: What about the Tumor weight (H22 liver cancer; 5 mg·kg^−1 iv once a day) of the same compound?
Answer: The Tumor weight was 1.939 ± 0.357 g.

Question: And the Inhibitory rate (H22 liver cancer; 10 mg·kg^−1 iv once a day, listed as Commercially availaavailable chlorogenic)?
Answer: The Inhibitory rate was 32.6%.

Question: And the Inhibitory rate (H22 liver cancer; 20 mg·kg^−1 iv once a day, listed as Commercially availaavailable chlorogenic)?
Answer: Its Inhibitory rate is 31.8%.

Question: What about the Inhibitory rate (H22 liver cancer; 30 mg·kg^−1 iv once a day) of the same compound?
Answer: The Inhibitory rate was 31.9%.

Question: What about the Inhibitory rate (H22 liver cancer; 40 mg·kg^−1 iv once a day) of the same compound?
Answer: Its Inhibitory rate is 28.1%.

Question: What about the Inhibitory rate (H22 liver cancer; 50 mg·kg^−1 iv once a day) of the same compound?
Answer: Its Inhibitory rate is 23.4%.

Question: What about the Tumor weight (H22 liver cancer; 50 mg·kg^−1 iv once a day) of the same compound?
Answer: The Tumor weight was 1.799 ± 0.462 g.

Question: And the Inhibitory rate (H22 liver cancer; 60 mg·kg^−1 iv once a day)?
Answer: The Inhibitory rate was 21.3%.

Question: What about the Tumor weight (H22 liver cancer; 60 mg·kg^−1 iv once a day) of the same compound?
Answer: The Tumor weight was 1.848 ± 0.741 g.

Question: What about the Inhibitory rate (H22 liver cancer; 70 mg·kg^−1 iv once a day) of the same compound?
Answer: Its Inhibitory rate is 14.6%.

Question: What about the Tumor weight (H22 liver cancer; 70 mg·kg^−1 iv once a day) of the same compound?
Answer: The Tumor weight was 2.005 ± 0.345 g.

Question: What about the Inhibitory rate (H22 liver cancer; 80 mg·kg^−1 iv once a day) of the same compound?
Answer: The Inhibitory rate was 13.7%.

Question: And the Tumor weight (H22 liver cancer; 80 mg·kg^−1 iv once a day)?
Answer: The Tumor weight was 2.026 ± 0.611 g.

Question: What about the Inhibitory rate (H22 liver cancer; 90 mg·kg^−1 iv once a day) of the same compound?
Answer: The Inhibitory rate was 9.8%.

Question: What about the Tumor weight (H22 liver cancer; 90 mg·kg^−1 iv once a day) of the same compound?
Answer: The Tumor weight was 2.118 ± 0.557 g.

Question: And the Inhibitory rate (H22 liver cancer; 100 mg·kg^−1 iv once a day)?
Answer: Its Inhibitory rate is 7.2%.

Question: What about the Tumor weight (H22 liver cancer; 100 mg·kg^−1 iv once a day) of the same compound?
Answer: The Tumor weight was 2.179 ± 0.341 g.
